pIC50: −log10 of the molar value.
Biological target: T1, Cytochrome P450 2A6 (CYP2A6) (Homo sapiens, UniProt P11509)
T1 sequence (P11509 1-494): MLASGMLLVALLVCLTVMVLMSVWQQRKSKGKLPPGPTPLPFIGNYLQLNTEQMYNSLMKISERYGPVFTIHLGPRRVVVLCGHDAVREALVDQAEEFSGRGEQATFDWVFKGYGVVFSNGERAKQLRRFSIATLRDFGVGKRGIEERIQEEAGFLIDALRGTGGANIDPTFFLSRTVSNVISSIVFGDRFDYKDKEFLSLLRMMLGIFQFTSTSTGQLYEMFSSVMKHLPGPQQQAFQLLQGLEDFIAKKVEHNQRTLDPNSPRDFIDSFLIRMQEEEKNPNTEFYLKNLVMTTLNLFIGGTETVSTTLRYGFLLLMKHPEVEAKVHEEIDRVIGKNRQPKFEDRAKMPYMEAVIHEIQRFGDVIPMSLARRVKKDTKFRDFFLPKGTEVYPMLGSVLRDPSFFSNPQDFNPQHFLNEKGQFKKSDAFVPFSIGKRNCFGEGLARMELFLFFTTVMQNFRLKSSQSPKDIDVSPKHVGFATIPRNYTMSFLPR
Assay: Vivid CYP450 fluorescence inhibition assay with CYP2A6 baculosomes, 10-point dose-response
Format: biochemical

SMILES	pIC50
CCOC(=O)COc1ccccc1-c1cc(=O)c2ccccc2o1 [compound 1, Ethyl 2-(2-(4-Oxo-4H-chromen-2-yl)phenoxy)acetate]	4.42
O=C(O)COc1ccccc1-c1cc(=O)c2ccccc2o1 [compound 6, 2-(2-(4-Oxo-4H-chromen-2-yl)phenoxy)acetic Acid]	5.81
CCOC(=O)COc1c(-c2ccccc2)oc2ccccc2c1=O [compound 2, Ethyl 2-((4-Oxo-2-phenyl-4H-chromen-3-yl)oxy)acetate]	5.34
